From PMC9937801 (Journal of Pharmaceutical Analysis, 2022)
pKd: −log10 of the molar value.

Target: squalene epoxidase (SQLE) (Homo sapiens, UniProt Q14534)
Assay: SPR
Type: binding

Chain of squalene epoxidase (SQLE) (Q14534 whole entry): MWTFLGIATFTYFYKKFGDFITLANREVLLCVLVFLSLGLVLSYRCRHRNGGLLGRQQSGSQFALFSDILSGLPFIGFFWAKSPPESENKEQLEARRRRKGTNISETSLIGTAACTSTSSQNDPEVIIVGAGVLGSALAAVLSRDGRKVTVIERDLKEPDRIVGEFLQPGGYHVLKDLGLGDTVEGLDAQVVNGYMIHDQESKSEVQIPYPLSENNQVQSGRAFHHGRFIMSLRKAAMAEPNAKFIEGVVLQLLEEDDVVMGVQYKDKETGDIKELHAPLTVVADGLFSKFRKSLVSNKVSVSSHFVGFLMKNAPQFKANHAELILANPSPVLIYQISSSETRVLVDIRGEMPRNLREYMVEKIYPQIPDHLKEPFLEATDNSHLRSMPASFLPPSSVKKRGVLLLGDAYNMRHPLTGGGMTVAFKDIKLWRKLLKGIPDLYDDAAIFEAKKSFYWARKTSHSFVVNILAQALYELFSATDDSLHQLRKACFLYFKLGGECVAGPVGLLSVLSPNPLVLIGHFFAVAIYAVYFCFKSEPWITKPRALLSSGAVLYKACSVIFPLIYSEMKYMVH

Question: `C[C@@H]1CC[C@@]2(OC1)O[C@H]1C[C@H]3[C@@H]4CC=C5C[C@@H](O[C@@H]6O[C@H](CO)[C@@H](O[C@@H]7O[C@@H](CO)[C@H](O)[C@H]7O)[C@H](O)[C@H]6O[C@@H]6O[C@@H](C)[C@H](O)[C@@H](O)[C@H]6O)CC[C@]5(C)[C@H]4CC[C@]3(C)[C@H]1[C@@H]2C` [PPI, Polyphyllin I] was tested. Which pKd did it give?
Answer: The pKd was 4.58.
